Data: ChEMBL document CHEMBL1201862, “PubChem BioAssay data set” (2004)
Calls of active or inactive are those of the source.

Legend:
[1] = target: Glycogen synthase kinase-3 alpha (Homo sapiens, UniProt P49840); assay: Inhibition of Human GSK-3 alpha Activity Measured in Biochemical System Using Microfluidics - 2063-06_Inhibitor_Dose_DryPowder_Activity_Set2. [Related pubchem assays (depositor defined):AID2709]
[2] = target: Cyclin-dependent kinase 5/CDK5 activator 1 (Homo sapiens, UniProt Q00535); assay: human CDK5 activity blockade – biochemical, microfluidic mobility shift, dry powder, selectivity assay for GSK-3 alpha inhibitor project, dose response (AID 588430)
[3] = target: T1, Aryl hydrocarbon receptor (Homo sapiens, UniProt P35869); assay: Luminescence-based cell-based high throughput dose response assay for activators of the Aryl Hydrocarbon Receptor (AHR). [Related pubchem assays: 2796 (Primary screen (AHR activators in singlicate)), 2845 (Confirmation screen (AHR activators in triplicate)), 434939 (Counterscreen (PXR activators in triplicate)), 2804 (Summary (AHR activators))]; assay type: ADME
T1 sequence (P35869 whole entry): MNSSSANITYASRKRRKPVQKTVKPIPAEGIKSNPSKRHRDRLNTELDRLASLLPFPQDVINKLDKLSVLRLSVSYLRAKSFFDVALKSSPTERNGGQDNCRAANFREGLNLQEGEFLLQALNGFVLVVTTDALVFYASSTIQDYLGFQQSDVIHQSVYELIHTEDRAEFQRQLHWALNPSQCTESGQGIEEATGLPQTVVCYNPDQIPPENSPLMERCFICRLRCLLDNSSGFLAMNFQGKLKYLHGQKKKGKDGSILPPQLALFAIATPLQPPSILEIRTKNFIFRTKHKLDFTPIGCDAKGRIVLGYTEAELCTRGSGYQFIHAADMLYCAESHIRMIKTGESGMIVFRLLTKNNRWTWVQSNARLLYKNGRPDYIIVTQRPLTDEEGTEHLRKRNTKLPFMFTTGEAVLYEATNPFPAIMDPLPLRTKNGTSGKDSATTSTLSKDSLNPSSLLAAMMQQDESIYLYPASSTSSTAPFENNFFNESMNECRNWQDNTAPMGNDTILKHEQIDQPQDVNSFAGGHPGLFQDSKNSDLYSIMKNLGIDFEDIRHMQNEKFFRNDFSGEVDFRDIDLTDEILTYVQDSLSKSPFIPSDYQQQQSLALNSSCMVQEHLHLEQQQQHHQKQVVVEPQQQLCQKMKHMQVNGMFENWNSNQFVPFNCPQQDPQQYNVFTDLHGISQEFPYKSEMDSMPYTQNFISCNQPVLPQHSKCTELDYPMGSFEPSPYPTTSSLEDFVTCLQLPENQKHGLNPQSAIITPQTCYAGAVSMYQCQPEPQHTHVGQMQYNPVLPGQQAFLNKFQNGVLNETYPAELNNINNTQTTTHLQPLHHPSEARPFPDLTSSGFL

[4] = target: Glycogen synthase kinase-3 beta (Homo sapiens, UniProt P49841); assay: Inhibition of Human GSK-3 beta Activity Measured in Biochemical System Using Microfluidics - 2063-05_Inhibitor_Dose_DryPowder_Activity_Set2. [Related pubchem assays (depositor defined):AID2709]
[5] = luciferase reporter signal suppression in cells – H4 neuroglioma cells, luminescence, dose response (AID 1990); assay type: functional, cell-based
[6] = alpha-synuclein stem-loop luciferase translation blockers – H4 neuroglioma cells, luminescence, confirmation (AID 1988); assay type: functional, cell-based
[7] = Luminescence Cell-Based Dose Response HTS to Identify Inhibitors of 5'UTR Stem-Loop Driven Prion Protein mRNA Translation in H4 Neuroglioblastoma Cells. [Related pubchem assays: 1827 (Project Summary), 1813 (Primary HTS)]; assay type: functional
[8] = M. tuberculosis growth inhibition in 7H9, dose response, 7H9 media, purified and synthesized samples, set 3 (AID 504646); assay type: functional
[9] = A High Throughput Confirmatory Assay used to Identify Novel Compounds that Inhibit Mycobacterium Tuberculosis in the absence of Glycerol using Purified and Synthesized Compounds (3).; assay type: functional
[10] = target: T2, Melanin-concentrating hormone receptor 1 (Homo sapiens, UniProt Q99705); assay: Late-stage fluorescence-based counterscreen for antagonists of the G-protein coupled receptor 7 (GPR7): cell-based dose response assay to identify antagonists of the melanin-concentrating hormone receptor 1 (MCHR1) Set 5.; assay type: functional
[11] = target: T3, Neuropeptides B/W receptor type 1 (Homo sapiens, UniProt P48145); assay: human NPBW1 receptor blockade, IC50 – cell-based, fluorescence, dose response, set 5, late-stage follow-up (AID 588566); assay type: functional
T3 sequence (P48145 whole entry): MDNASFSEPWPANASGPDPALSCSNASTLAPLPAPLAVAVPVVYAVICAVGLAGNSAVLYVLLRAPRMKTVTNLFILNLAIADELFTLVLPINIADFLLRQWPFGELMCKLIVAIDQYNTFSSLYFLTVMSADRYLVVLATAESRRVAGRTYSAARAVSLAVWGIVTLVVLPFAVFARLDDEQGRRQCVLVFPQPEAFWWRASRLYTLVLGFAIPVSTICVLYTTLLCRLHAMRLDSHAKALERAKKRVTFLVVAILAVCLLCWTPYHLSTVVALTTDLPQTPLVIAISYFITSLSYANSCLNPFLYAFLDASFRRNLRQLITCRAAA

[12] = target: T3, Neuropeptides B/W receptor type 1; assay: human NPBW1 receptor blockade, IC50 – cell-based, fluorescence, dose response, set 6, late-stage follow-up (AID 588583); assay type: functional
[13] = target: T2, Melanin-concentrating hormone receptor 1; assay: Late-stage fluorescence-based counterscreen for antagonists of the G-protein coupled receptor 7 (GPR7): cell-based dose response assay to identify antagonists of the melanin-concentrating hormone receptor 1 (MCHR1) Set 6.; assay type: functional
[14] = target: DNA dC->dU-editing enzyme APOBEC-3A (Homo sapiens, UniProt P31941); assay: SAR analysis of small molecule inhibitors of APOBEC3A DNA Deaminase via a fluorescence-based single-stranded DNA deaminase assay.; assay type: functional; details: read-out: IC50_Mean
[15] = target: DNA dC->dU-editing enzyme APOBEC-3G (Homo sapiens, UniProt Q9HC16); assay: inhibition of APOBEC3G ssDNA deamination – biochemical, fluorescence, single-stranded DNA substrate, SAR follow-up (AID 602136); assay type: functional; details: read-out: IC50_Mean
[16] = target: T4, High affinity choline transporter 1 (Homo sapiens, UniProt Q9GZV3); assay: human choline transporter blockers, potency – cell-based, 5-point CRC, membrane potential dye, dose response (AID 504840); assay type: functional
T4 sequence (Q9GZV3 whole entry): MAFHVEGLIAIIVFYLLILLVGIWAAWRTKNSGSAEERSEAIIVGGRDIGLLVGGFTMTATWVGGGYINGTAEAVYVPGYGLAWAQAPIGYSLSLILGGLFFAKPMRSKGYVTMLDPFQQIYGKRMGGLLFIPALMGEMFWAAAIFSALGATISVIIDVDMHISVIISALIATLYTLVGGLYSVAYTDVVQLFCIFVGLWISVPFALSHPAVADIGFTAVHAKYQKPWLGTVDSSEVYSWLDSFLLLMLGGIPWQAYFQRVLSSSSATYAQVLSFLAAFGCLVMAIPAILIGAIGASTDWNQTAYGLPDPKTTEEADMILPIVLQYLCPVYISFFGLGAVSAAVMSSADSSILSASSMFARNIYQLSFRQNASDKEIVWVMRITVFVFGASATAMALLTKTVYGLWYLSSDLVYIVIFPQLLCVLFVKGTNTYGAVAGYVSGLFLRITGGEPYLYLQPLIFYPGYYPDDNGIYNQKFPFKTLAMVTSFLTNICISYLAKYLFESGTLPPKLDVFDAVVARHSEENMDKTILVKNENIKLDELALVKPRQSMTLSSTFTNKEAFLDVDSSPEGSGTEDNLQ

[17] = target: T4, High affinity choline transporter 1; assay: human choline transporter blockers, potency – cell-based, 10-point CRC, membrane potential dye, dose response (AID 588401); assay type: functional;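 note: membrane potential dye fluorescence of choline-evoked depolarization via CHT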

T2 sequence (Q99705 whole entry): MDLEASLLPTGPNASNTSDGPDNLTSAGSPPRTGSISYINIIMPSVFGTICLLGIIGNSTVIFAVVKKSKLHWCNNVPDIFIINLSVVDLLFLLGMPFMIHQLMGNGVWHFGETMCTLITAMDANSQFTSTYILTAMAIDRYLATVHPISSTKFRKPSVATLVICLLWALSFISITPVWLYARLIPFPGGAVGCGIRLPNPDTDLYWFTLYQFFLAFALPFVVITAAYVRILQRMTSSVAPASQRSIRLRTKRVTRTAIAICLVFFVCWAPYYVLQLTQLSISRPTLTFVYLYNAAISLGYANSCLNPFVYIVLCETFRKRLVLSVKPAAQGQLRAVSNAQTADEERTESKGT
Chain of DNA dC->dU-editing enzyme APOBEC-3A (P31941 whole entry): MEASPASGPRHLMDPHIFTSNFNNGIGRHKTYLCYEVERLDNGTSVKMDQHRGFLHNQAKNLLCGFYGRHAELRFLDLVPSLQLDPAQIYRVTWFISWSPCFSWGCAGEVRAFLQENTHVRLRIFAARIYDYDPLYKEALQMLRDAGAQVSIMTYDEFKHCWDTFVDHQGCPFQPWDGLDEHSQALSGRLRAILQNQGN
Chain of Cyclin-dependent kinase 5/CDK5 activator 1 (Q00535 whole entry): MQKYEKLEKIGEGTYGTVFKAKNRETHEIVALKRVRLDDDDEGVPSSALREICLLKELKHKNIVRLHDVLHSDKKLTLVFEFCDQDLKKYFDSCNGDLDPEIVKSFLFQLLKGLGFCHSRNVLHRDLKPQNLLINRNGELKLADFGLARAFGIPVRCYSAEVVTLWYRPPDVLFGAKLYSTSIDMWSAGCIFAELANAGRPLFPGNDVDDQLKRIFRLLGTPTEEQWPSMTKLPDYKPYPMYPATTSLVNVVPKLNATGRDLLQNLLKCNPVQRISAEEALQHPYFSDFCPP
Chain of Cyclin-dependent kinase 5/CDK5 activator 1 (Q15078 whole entry, further chain): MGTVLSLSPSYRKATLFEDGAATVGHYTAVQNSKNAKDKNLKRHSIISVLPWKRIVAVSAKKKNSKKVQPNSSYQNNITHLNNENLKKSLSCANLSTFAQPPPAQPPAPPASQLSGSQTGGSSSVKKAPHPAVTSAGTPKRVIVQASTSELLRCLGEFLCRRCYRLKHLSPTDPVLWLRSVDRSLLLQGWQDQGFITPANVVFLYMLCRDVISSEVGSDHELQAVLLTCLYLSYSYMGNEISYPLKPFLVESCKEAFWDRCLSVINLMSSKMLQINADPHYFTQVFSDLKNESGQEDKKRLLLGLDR
Chain of Glycogen synthase kinase-3 beta (P49841 whole entry): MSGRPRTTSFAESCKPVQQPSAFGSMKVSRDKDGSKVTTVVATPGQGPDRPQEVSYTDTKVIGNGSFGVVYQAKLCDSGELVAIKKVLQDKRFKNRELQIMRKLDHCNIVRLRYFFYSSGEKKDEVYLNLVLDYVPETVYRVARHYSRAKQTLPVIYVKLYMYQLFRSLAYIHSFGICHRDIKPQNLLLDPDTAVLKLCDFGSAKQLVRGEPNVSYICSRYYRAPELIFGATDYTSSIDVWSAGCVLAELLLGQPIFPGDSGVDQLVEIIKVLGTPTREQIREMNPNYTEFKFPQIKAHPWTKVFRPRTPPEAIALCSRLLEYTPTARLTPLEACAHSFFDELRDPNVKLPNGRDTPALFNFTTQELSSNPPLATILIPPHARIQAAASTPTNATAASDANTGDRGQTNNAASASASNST
Chain of DNA dC->dU-editing enzyme APOBEC-3G (Q9HC16 whole entry): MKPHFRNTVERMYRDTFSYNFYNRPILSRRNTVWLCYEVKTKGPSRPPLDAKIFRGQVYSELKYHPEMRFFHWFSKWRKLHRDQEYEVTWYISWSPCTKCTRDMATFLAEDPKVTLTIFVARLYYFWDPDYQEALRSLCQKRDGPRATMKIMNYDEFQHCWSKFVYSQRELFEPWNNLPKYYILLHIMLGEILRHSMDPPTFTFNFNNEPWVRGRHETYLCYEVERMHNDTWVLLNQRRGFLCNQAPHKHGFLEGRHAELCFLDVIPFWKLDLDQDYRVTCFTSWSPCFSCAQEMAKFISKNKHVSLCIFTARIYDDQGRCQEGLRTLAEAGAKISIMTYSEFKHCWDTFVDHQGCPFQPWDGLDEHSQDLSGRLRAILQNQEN
Chain of Glycogen synthase kinase-3 alpha (P49840 whole entry): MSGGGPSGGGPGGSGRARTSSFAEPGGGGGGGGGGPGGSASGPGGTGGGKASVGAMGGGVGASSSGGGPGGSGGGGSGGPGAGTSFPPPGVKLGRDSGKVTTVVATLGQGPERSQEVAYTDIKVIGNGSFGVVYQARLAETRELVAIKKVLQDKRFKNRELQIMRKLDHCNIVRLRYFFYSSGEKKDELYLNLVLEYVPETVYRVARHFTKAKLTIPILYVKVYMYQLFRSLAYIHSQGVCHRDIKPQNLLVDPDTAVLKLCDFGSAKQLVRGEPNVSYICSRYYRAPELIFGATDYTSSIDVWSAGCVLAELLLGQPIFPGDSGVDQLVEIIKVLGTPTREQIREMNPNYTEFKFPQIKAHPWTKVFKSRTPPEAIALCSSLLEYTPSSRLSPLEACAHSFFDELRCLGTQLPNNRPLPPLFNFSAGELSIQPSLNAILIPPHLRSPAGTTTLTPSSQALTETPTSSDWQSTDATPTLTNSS

## COc1ccccc1Nc1nc(NCCO)nc(N)c1[N+](=O)[O-]
[1]
  AC50: 0.276 µM (active)
[2]
  AC50: 6.14 µM (active)
[3]
  EC50: 1.2 µM (active)
[4]
  AC50: 0.134 µM (active)
[5]
  EC50: 10.9 µM (active)
[6]
  EC50: 11.3 µM (active)
[7]
  EC50: 0.118 µM (active)

## O=C(c1ccc(CNc2c(N3CCCC3)c(=O)c2=O)cc1)N1CCN(C2CCCCC2)CC1
[8]
  IC50: > 25 µM (active)
[9]
  IC50: > 25 µM (active)

## COc1ccc(Oc2c(Cl)cnn(Cc3ccc4c(c3)C(=O)c3ccccc3C4=O)c2=O)cc1
[10]
  IC50: > 20 µM (inactive)
[11]
  IC50: > 20 µM (inactive)

## Cc1ccc(C)c(C(C#N)c2c(Cl)cnn(Cc3cccc4ccccc34)c2=O)c1 (configuration not stated)
[12]
  IC50: 3.14 µM (active)
[13]
  IC50: 3.14 µM (active)

## COc1ccc2c(Cl)c(-c3nnc4n3CCC4)sc2c1
[14]
  IC50: > 99 µM (inactive)
[15]
  IC50: > 99 µM (inactive)

## C=CCc1ccc(O)c(-c2cc(CC=C)ccc2O)c1 [MAGNOLOL]
[16]
  IC50: 2.89 µM (active)
[17]
  IC50: 1.7 µM (active)
